Results taken from ChEMBL document CHEMBL4321852, “Structure-Based and Property-Driven Optimization of N-Aryl Imidazoles toward Potent and Selective Oral RORγt Inhibitors” (J Med Chem, 2019).

How the values were obtained:
[1] = Clearance in Sprague-Dawley rat at 1 mg/kg, iv; format: ADME, organism-based; conditions: in vivo
[2] = biological target: T1, Vitamin D3 receptor (Homo sapiens, UniProt P11473); experiment: Inhibition of Gal4-tagged VDR LBD (unknown origin) by cell based luciferase reporter gene assay
T1 sequence (P11473 whole entry): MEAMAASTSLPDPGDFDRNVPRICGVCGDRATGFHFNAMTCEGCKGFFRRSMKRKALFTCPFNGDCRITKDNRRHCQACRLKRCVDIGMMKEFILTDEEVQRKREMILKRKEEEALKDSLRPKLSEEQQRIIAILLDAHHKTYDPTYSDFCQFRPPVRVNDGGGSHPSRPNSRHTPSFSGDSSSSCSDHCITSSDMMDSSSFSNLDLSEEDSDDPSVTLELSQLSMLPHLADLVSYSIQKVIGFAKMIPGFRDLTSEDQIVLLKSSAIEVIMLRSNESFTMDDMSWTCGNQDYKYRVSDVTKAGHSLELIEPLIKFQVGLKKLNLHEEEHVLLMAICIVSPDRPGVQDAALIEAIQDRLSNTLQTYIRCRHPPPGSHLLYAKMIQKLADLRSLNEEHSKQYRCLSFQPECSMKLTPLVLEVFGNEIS

[3] = test system: Rattus norvegicus; experiment: Anti-inflammatory activity in mBSA/CFA-immunized Lewis rat delayed-type hypersensitivity model assessed as reduction in frequencies of IL-17-producing draining lymph node cells at 1 to 15 mg/kg, po via gavage administered twice daily for 2 days treated prior to mBSA/CFA challenge relative to control; format: functional; set-up: scale not given: the % may be the effect or the level left
[4] = Dose normalized Cmax in DA rat at 5 mg/kg, po; format: ADME, organism-based; conditions: in vivo
[5] = Tmax in DA rat at 5 mg/kg, po; format: ADME, organism-based; conditions: in vivo
[6] = biological target: T2, Nuclear receptor ROR-alpha (Homo sapiens, UniProt P35398); experiment: Inhibition of Gal4-tagged RORalpha LBD (unknown origin) by cell based luciferase reporter gene assay
T2 sequence (P35398 whole entry): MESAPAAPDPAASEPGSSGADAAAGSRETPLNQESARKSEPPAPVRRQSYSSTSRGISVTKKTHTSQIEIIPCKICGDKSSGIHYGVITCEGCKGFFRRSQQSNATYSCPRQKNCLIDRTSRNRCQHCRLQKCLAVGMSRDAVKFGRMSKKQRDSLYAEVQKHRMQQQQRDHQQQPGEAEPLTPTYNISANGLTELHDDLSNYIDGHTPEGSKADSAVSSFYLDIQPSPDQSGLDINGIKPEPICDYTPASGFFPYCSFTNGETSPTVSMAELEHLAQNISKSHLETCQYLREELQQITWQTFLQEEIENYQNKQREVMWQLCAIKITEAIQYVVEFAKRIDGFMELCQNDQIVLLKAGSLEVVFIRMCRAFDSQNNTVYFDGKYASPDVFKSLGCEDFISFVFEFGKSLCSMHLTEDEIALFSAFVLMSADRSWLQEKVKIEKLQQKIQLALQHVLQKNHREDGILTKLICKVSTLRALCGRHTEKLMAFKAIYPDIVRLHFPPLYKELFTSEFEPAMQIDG

[7] = test system: Rattus norvegicus; experiment: Anti-inflammatory activity in mBSA/CFA-immunized Lewis rat delayed-type hypersensitivity model assessed as reduction in frequencies of IL-17-producing draining lymph node cells at 1 to 15 mg/kg, po via gavage administered twice daily for 2 days treated prior to mBSA/CFA challenge; format: functional, organism-based
[8] = biological target: T3, Progesterone receptor (Homo sapiens, UniProt P06401); experiment: Inhibition of Gal4-tagged PR LBD (unknown origin) by cell based luciferase reporter gene assay
T3 sequence (P06401 whole entry): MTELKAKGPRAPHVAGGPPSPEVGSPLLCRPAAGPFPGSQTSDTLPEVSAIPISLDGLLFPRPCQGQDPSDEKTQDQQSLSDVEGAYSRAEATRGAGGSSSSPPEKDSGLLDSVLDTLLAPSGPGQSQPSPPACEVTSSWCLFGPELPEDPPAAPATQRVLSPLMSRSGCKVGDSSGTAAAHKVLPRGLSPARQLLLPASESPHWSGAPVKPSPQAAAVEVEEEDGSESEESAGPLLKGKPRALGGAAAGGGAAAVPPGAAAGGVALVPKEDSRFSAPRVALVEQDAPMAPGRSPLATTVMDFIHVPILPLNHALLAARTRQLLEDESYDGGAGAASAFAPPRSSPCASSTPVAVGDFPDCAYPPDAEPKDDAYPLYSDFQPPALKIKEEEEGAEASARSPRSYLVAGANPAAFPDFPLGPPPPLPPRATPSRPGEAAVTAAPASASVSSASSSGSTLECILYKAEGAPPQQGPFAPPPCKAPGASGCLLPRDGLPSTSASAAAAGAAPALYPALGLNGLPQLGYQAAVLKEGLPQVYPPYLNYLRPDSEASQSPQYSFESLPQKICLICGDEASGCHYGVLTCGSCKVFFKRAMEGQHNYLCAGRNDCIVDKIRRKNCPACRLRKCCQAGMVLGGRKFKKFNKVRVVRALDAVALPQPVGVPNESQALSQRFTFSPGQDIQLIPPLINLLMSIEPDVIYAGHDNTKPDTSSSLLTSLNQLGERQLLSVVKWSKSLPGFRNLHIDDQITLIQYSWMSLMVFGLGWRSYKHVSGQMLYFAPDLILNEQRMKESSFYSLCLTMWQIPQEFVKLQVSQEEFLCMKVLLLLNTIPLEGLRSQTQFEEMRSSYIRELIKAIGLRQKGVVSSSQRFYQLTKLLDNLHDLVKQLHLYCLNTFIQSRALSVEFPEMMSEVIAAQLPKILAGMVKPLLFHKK

[9] = biological target: T4, Nuclear receptor subfamily 1 group I member 2 (Homo sapiens, UniProt O75469); experiment: Inhibition of Gal4-tagged PXR LBD (unknown origin) by cell based luciferase reporter gene assay
T4 sequence (O75469 whole entry): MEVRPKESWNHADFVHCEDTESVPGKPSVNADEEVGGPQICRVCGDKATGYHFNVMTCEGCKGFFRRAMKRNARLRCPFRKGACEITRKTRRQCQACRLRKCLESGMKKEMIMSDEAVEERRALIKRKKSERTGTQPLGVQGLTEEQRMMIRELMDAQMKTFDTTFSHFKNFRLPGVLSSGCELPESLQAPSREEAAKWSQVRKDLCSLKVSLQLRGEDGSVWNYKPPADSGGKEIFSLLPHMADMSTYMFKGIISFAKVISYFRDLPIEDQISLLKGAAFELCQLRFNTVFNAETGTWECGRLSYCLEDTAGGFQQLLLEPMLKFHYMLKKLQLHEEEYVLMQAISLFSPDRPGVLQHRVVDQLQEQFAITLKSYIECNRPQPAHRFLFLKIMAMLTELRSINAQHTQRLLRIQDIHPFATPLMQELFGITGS

Cc1c(C2(C(F)(F)F)CC2)nc(C2CC2)n1-c1c(Cl)ccc(N2CC3(CC(C(=O)O)C3)C2)c1Cl (single isomer, unassigned; atropisomer)
clearance [1]: 2.7 mL/min/kg | IC50 [2]: > 10 µM | Activity [3]: 50% | Cmax/dose [4]: 2448 nM | Tmax [5]: 1 h | IC50 [6]: > 10 µM | Activity [7]: Dose-dependent effect | IC50 [8]: > 10 µM | IC50 [9]: > 10 µM
